# Molecular target: human ERK-2 (Mitogen Activated Kinase 1) (Homo sapiens (Human), UniProt P28482)
# Assay: ERK-2 Enzymatic Assay
# Assay type: biochemical
# Details: human ERK-2 enzyme 5 nM, 25 μM ATP, S/T17 peptide substrate; isomer = configuration of CR2R3
# Protocol: Compounds were tested in an enzymatic assay using human ERK-2 (Mitogen Activated Kinase 1), recombinantly expressed as an n-terminal 6-His fusion protein in E. coli and corresponding to aa 8-360. […] Test compounds were diluted in DMSO in 3-fold serial dilutions at 100× final concentrations. […] The data collected from each well was fit to a straight line, and the resulting rates were used to calculate percent of control. Percent of control was plotted against compound concentration, and IC50 values were determined using a four-parameter fit.
# Chain of human ERK-2 (Mitogen Activated Kinase 1) (P28482 8-360): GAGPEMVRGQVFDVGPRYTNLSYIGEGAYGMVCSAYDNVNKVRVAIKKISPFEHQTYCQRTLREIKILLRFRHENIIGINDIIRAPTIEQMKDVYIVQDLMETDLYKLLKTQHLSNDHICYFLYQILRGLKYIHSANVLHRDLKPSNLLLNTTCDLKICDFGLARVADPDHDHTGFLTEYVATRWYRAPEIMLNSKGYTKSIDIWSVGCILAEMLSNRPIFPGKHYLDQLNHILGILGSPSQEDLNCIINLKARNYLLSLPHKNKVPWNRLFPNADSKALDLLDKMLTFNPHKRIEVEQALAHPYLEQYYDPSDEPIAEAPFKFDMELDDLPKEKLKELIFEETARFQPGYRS
row,Structure (SMILES),IC50 [nM]
1,"Cn1nccc1Nc1cc(-c2cc3n4c(nnc4c2)[C@H](c2ccccc2)CN3)ccn1 (single isomer, unassigned) [(R) I-4, N-(1-methyl-1H-pyrazol-5-yl)-4-(3-phenyl-4,5-dihydro-3H-1,2,2a^1,5-tetraazaacenaphthylen-7-yl)pyridin-2-amine]",43.1
2,"Cn1nccc1Nc1cc(-c2cc3n4c(nnc4c2)C(Cc2ccccc2Cl)CCO3)ccn1 (single isomer, unassigned) [(R) I-30, 4-(9-(2-chlorobenzyl)-8,9-dihydro-7H-6-oxa-1,2,2a^1-triazabenzo[cd]azulen-4-yl)-N-(1-methyl-1H-pyrazol-5-yl)pyridin-2-amine]",2.55
3,"CCC(C)CC1COc2cc(-c3ccnc(Nc4ccnn4C)n3)cc3nnc1n23 (single isomer, unassigned) [(R) I-52, N-(1-methyl-1H-pyrazol-5-yl)-4-(3-(2-methylbutyl)-3,4-dihydro-5-oxa-1,2,2a^1-triazaacenaphthylen-7-yl)pyrimidin-2-amine]",< 0.02
4,"Cn1nccc1Nc1cc(-c2cc3n4c(nnc4c2)C(Cc2ccc(Cl)cc2)CO3)ccn1 (single isomer, unassigned) [(R) I-55, 4-(3-(4-chlorobenzyl)-3,4-dihydro-5-oxa-1,2,2a^1-triazaacenaphthylen-7-yl)-N-(1-methyl-1H-pyrazol-5-yl)pyridin-2-amine]",< 0.02
5,"Cn1nccc1Nc1cc(-c2cc3n4c(nnc4c2)C(Cc2ccccc2Cl)CCO3)ccn1 (single isomer, unassigned) [(R) I-60, 4-(9-(2-chlorobenzyl)-8,9-dihydro-7H-6-oxa-1,2,2a^1-triazabenzo[cd]azulen-4-yl)-N-(1-methyl-1H-pyrazol-5-yl)pyridin-2-amine]",2.55
6,"CCCC1COc2cc(-c3ccnc(Nc4ccnn4C)n3)cc3nnc1n23 (single isomer, unassigned) [(R) I-101, N-(1-methyl-1H-pyrazol-5-yl)-4-(3-propyl-3,4-dihydro-5-oxa-1,2,2a^1-triazaacenaphthylen-7-yl)pyrimidin-2-amine]",0.038
7,"Cn1nccc1Nc1cc(-c2cc3n4c(nnc4c2)[C@@H](c2ccccc2)CN3)ccn1 (single isomer, unassigned) [(S) I-4, N-(1-methyl-1H-pyrazol-5-yl)-4-(3-phenyl-4,5-dihydro-3H-1,2,2a^1,5-tetraazaacenaphthylen-7-yl)pyridin-2-amine]",< 0.02
8,"CCC(C)CC1COc2cc(-c3ccnc(Nc4ccnn4C)n3)cc3nnc1n23 (single isomer, unassigned) [(S) I-52, N-(1-methyl-1H-pyrazol-5-yl)-4-(3-(2-methylbutyl)-3,4-dihydro-5-oxa-1,2,2a^1-triazaacenaphthylen-7-yl)pyrimidin-2-amine]",93.4
9,"Cn1nccc1Nc1cc(-c2cc3n4c(nnc4c2)C(Cc2ccc(Cl)cc2)CO3)ccn1 (single isomer, unassigned) [(S) I-55, 4-(3-(4-chlorobenzyl)-3,4-dihydro-5-oxa-1,2,2a^1-triazaacenaphthylen-7-yl)-N-(1-methyl-1H-pyrazol-5-yl)pyridin-2-amine]",12.5
10,"Cn1nccc1Nc1cc(-c2cc3n4c(nnc4c2)C(Cc2ccccc2Cl)CCO3)ccn1 (single isomer, unassigned) [(S) I-60, 4-(9-(2-chlorobenzyl)-8,9-dihydro-7H-6-oxa-1,2,2a^1-triazabenzo[cd]azulen-4-yl)-N-(1-methyl-1H-pyrazol-5-yl)pyridin-2-amine]",< 0.02
11,"CCCC1COc2cc(-c3ccnc(Nc4ccnn4C)n3)cc3nnc1n23 (single isomer, unassigned) [(S) I-101, N-(1-methyl-1H-pyrazol-5-yl)-4-(3-propyl-3,4-dihydro-5-oxa-1,2,2a^1-triazaacenaphthylen-7-yl)pyrimidin-2-amine]",19.5
12,"Cn1nccc1Nc1nccc(-c2cc3n4c(nnc4c2)[C@H](c2ccccc2)CN3)n1 [(R) I-1, N-(1-methyl-1H-pyrazol-5-yl)-4-(3-phenyl-4,5-dihydro-3H-1,2,2a^1,5-tetraazaacenaphthylen-7-yl)pyrimidin-2-amine]",179
13,"Cn1nccc1Nc1nccc(-c2cc3n4c(nnc4c2)[C@H](Cc2ccccc2)CN3)n1 [(R) I-2, (R)-4-(3-benzyl-4,5-dihydro-3H-1,2,2a^1,5-tetraazaacenaphthylen-7-yl)-N-(1-methyl-1H-pyrazol-5-yl)pyrimidin-2-amine]",0.38
14,"Cn1nccc1Nc1nccc(-c2cc3n4c(nnc4c2)[C@H](Cc2ccc(Cl)cc2)CN3)n1 [(R) I-5, 4-(3-(4-chlorobenzyl)-4,5-dihydro-3H-1,2,2a^1,5-tetraazaacenaphthylen-7-yl)-N-(1-methyl-1H-pyrazol-5-yl)pyrimidin-2-amine]",0.408
15,"Cn1nccc1Nc1cc(-c2cc3n4c(nnc4c2)[C@H](Cc2ccccc2)CN3)ccn1 [(R) I-7, 4-(3-benzyl-4,5-dihydro-3H-1,2,2a^1,5-tetraazaacenaphthylen-7-yl)-N-(1-methyl-1H-pyrazol-5-yl)pyridin-2-amine]",0.707
16,"Cn1nccc1Nc1cc(-c2cc3n4c(ncc4c2)[C@H](Cc2ccc(Cl)cc2)CN3)ccn1 [(R) I-8, 4-(3-(4-chlorobenzyl)-4,5-dihydro-3H-1,2,2a^1,5-tetraazaacenaphthylen-7-yl)-N-(1-methyl-1H-pyrazol-5-yl)pyridin-2-amine]",1.55
17,"CN1C[C@@H](Cc2ccccc2)c2nnc3cc(-c4ccnc(Nc5ccnn5C)n4)cc1n23 [(R) I-9, 4-(3-benzyl-5-methyl-4,5-dihydro-3H-1,2,2a^1,5-tetraazaacenaphthylen-7-yl)-N-(1-methyl-1H-pyrazol-5-yl)pyrimidin-2-amine]",5.04
18,"CC(C)C[C@@H]1CNc2cc(-c3ccnc(Nc4ccnn4C)n3)cc3nnc1n23 [(R) I-10, 4-(3-isobutyl-4,5-dihydro-3H-1,2,2a^1,5-tetraazaacenaphthylen-7-yl)-N-(1-methyl-1H-pyrazol-5-yl)pyrimidin-2-amine]",2.75
19,"COc1ccc(C[C@@H]2CNc3cc(-c4ccnc(Nc5ccnn5C)n4)cc4nnc2n34)cc1 [(R) I-11, 4-(3-(4-methoxybenzyl)-4,5-dihydro-3H-1,2,2a^1,5-tetraazaacenaphthylen-7-yl)-N-(1-methyl-1H-pyrazol-5-yl)pyrimidin-2-amine]",0.514
20,"COc1ccc(C[C@@H]2CNc3cc(-c4ccnc(Nc5ccnn5C)n4)cc4nnc2n34)cc1F [(R) I-12, 4-(3-(3-fluoro-4-methoxybenzyl)-4,5-dihydro-3H-1,2,2a^1,5-tetraazaacenaphthylen-7-yl)-N-(1-methyl-1H-pyrazol-5-yl)pyrimidin-2-amine]",0.311
21,"Cn1nccc1Nc1nccc(-c2cc3n4c(nnc4c2)[C@H](Cc2ccc(Cl)c(F)c2)CN3)n1 [(R) I-14, 4-(3-(4-chloro-3-fluorobenzyl)-4,5-dihydro-3H-1,2,2a^1,5-tetraazaacenaphthylen-7-yl)-N-(1-methyl-1H-pyrazol-5-yl)pyrimidin-2-amine]",0.0441
22,"Cn1nccc1Nc1nccc(-c2cc3n4c(nnc4c2)[C@@H](Cc2ccccc2)CO3)n1 [(R) I-15, 4-(3-benzyl-3,4-dihydro-5-oxa-1,2,2a^1-triazaacenaphthylen-7-yl)-N-(1-methyl-1H-pyrazol-5-yl)pyrimidin-2-amine]",0.02
23,"COc1ccc(C[C@@H]2CN(C)c3cc(-c4ccnc(Nc5ccnn5C)c4)cc4nnc2n34)cc1 [(R) I-18, 4-(3-(4-methoxybenzyl)-5-methyl-4,5-dihydro-3H-1,2,2a^1,5-tetraazaacenaphthylen-7-yl)-N-(1-methyl-1H-pyrazol-5-yl)pyridin-2-amine]",0.036
24,"CC(C)C[C@@H]1CN(C)c2cc(-c3ccnc(Nc4ccnn4C)c3)cc3nnc1n23 [(R) I-20, 4-(3-isobutyl-5-methyl-4,5-dihydro-3H-1,2,2a^1,5-tetraazaacenaphthylen-7-yl)-N-(1-methyl-1H-pyrazol-5-yl)pyridin-2-amine]",48.7
25,"Cn1nccc1Nc1nccc(-c2cc3n4c(nnc4c2)[C@H](Cc2ccc(F)cc2)CN3)n1 [(R) I-21, 4-(3-(4-fluorobenzyl)-4,5-dihydro-3H-1,2,2a^1,5-tetraazaacenaphthylen-7-yl)-N-(1-methyl-1H-pyrazol-5-yl)pyrimidin-2-amine]",0.731
26,"CN1C(=O)C[C@@H](Cc2ccc(Cl)cc2)c2nnc3cc(-c4ccnc(Nc5ccnn5C)n4)cc1n23 [(R) I-22, 9-(4-chlorobenzyl)-6-methyl-4-(2-((1-methyl-1H-pyrazol-5-yl)amino)pyrimidin-4-yl)-8,9-dihydro-1,2,2a^1,6-tetraazabenzo[cd]azulen-7(6H)-one]",88.2
27,"COc1ccc(C[C@@H]2CNc3cc(-c4ccnc(Nc5ccnn5C)n4)cc4nnc2n34)cn1 [(R) I-24, 4-(3-((6-methoxypyridin-3-yl)methyl)-4,5-dihydro-3H-1,2,2a^1,5-tetraazaacenaphthylen-7-yl)-N-(1-methyl-1H-pyrazol-5-yl)pyrimidin-2-amine]",1.85
28,"Cn1nccc1Nc1nccc(-c2cc3n4c(nnc4c2)[C@H](COCc2ccccc2)CCO3)n1 [(R) I-29, 4-(9-((benzyloxy)methyl)-8,9-dihydro-7H-6-oxa-1,2,2a^1-triazabenzo[cd]azulen-4-yl)-N-(1-methyl-1H-pyrazol-5-yl)pyrimidin-2-amine]",0.109
29,"CN1C[C@@H](Cc2ccc(F)cc2)c2nnc3cc(-c4ccnc(Nc5ccnn5C)n4)cc1n23 [(R) I-31, 4-(3-(4-fluorobenzyl)-5-methyl-4,5-dihydro-3H-1,2,2a^1,5-tetraazaacenaphthylen-7-yl)-N-(1-methyl-1H-pyrazol-5-yl)pyrimidin-2-amine]",1.35
30,"Cn1nccc1Nc1nccc(-c2cc3n4c(nnc4c2)[C@H](Cc2ccc(Cl)cc2)CCO3)n1 [(R) I-36, 4-(9-(4-chlorobenzyl)-8,9-dihydro-7H-6-oxa-1,2,2a^1-triazabenzo[cd]azulen-4-yl)-N-(1-methyl-1H-pyrazol-5-yl)pyrimidin-2-amine]",0.69

# From patent US9867833B2, “Serine/threonine kinase inhibitors” (GENENTECH, INC., priority 2013, dated 2018)
